Like-named read-outs stand apart in the source and are kept apart here.
Experiments:
[1] = tested on: mouse in oxygen-short state; assay: Activity on survival time of mouse in oxygen-short state; type: in vivo; conditions: for Survival Time: 30 minutes before carbon dioxide, Control 195.8 ± 3.7
Experimental: Activity on survival time of mouse in oxygen-short state
Mice were put in a plastic box of 150 cm each in length, width and height, and carbon dioxide was injected from a lower inlet at a rate of 500 ml/min. The period from the start of injection to the respiratory standstill of mice was counted as the survival time. (±) Rolipram, (+) rolipram, and (-) rolipram were all intraperitoneally administered to mice 30 minutes before carbon dioxide was loaded.

[2] = tested on: space recognition disorders induced by scopolamine; assay: Test on memory and study of rat using radial maize (scopolamine-induced space recognition disorder); type: in vivo
Excerpt: Test on memory and study of rat using radial maize
Rats under feed control were put at the central platform (diameter: 25 cm) of an 8-way radial maize (length and width of arm: 48 cm and 10 cm, 40 cm, height from the ground) and trained until they could efficiently take the feed put on the tip of the arm. Numbers of correct choices for the arms where the rats reached for the first time, number of incorrect choices for the arms where the rats reached two or more times and running time until completion of the session were measured for 10 minutes at maximum. When the results with not less than 7 correct choices were shown in 3 continuous sessions it was estimated that acquirement of space recognition was completed. Space recognition disorder was induced in the rats by administering 0.5 mg/kg of scopolamine (i.p., 30 minutes before the session) to study each activity of (±) rolipram, (+) rolipram and (-) rolipram (all administered p.o., 60 minutes before the session).

mouse = mouse acute toxicity test of rolipram; conditions: in vivo
Excerpt: (§1) The results of mouse acute toxicity test of rolipram are as follows.

[3] = tested on: cerebral ischemia-induced learning and memory disorders; assay: 3-panel runway device: effect on cerebral ischemia-induced learning and memory disorders; type: in vivo, rat; conditions: for number of incorrect responses, Session 1 / number of incorrect responses, Session 2 / number of incorrect responses, Session 3 / number of incorrect responses, Session 4 / number of incorrect responses, Session 5 / number of incorrect responses, Session 6: cerebral ischemia; for minimal effective dose: ip, i.p., read-out: dose improving the disorders induced by cerebral ischemia
Experimental: A 3-panel runway device (length: 175 cm, width: 36 cm and height: 25 cm) comprises a start box, four gateways equipped with three-panel gates and a goal box in which feed are put as the reward. The panel gates were designed so that only one of three panel gates in each gateway might be passable. Training of hungry rats to go out of the start box, reach the goal box and take the feed was made by continuous 6 sessions in 2 minute intervals. The training was carried out every day with the passable panel gate being varied every day. […] The rats are used for the following test. According to the method of Pulsinelli et al., the both vertebral arteries of rat were burnt and cut under anesthesia with pentobarbital. After 24 hours, the whole carotid artery on both sides was blocked for 5 minutes under no anesthesia.

[4] = tested on: memory and learning deficits; assay: overall conclusion from the experimental results using mice and rats; type: in vivo
[5] = tested on: memory and learning disorders induced by scopolamine; assay: 3-panel runway device: activity against memory and learning disorders induced by scopolamine; type: in vivo, rat
Experimental: A 3-panel runway device (length: 175 cm, width: 36 cm and height: 25 cm) comprises a start box, four gateways equipped with three-panel gates and a goal box in which feed are put as the reward. The panel gates were designed so that only one of three panel gates in each gateway might be passable. Training of hungry rats to go out of the start box, reach the goal box and take the feed was made by continuous 6 sessions in 2 minute intervals. The training was carried out every day with the passable panel gate being varied every day. In the test, (1) time taken for the rat to reach the goal box and take the feed after it left the start box, and (2) the number of incorrect choices that the rat made trying to pass the impassable gate were recorded and measured in each session. Rats satisfying for consecutive 3 days the criterion that the total time for 6 sessions in one day was within 60 seconds, the total number of incorrect choices was under 12 and the number of incorrect responses in sessions 2 to 6 was not greater than 8 were estimated to have completely learned. The rats are used for the following test.

[6] = mouse acute toxicity test of rolipram; conditions: in vivo, read-out: ED50 Value (acute toxicity)
Excerpt: as §1

[7] = 0.01 mg/kg p.o., 60 minutes before session, + scopolamine 0.5 mg/kg i.p.
[8] = 0.032 mg/kg i.p. + scopolamine 0.56 mg/kg
[9] = 10 mg/kg p.o., 60 minutes before session, + scopolamine 0.5 mg/kg i.p.
[10] = 1 mg/kg i.p. + scopolamine 0.56 mg/kg
[11] = scopolamine alone 0.56 mg/kg i.p.
[12] = 0.02 mg/kg p.o., 60 minutes before session, + scopolamine 0.5 mg/kg i.p.
[13] = 0.1 mg/kg i.p. + scopolamine 0.56 mg/kg

## COc1ccc(C2CNC(=O)C2)cc1OC1CCCC1 (single isomer, unassigned; (-)) [(-) Rolipram]
[1]; 0.3 mg/kg i.p.
  Survival Time: 219.8 ± 6.3 s
[1]; mouse, i.p.
  dose showing the action of prolonging the survival time: 0.3 mg/kg
[2]; [7]
  Number of Correct Choice: 6.9 ± 0.3
  Number of Incorrect Choice: 3.2 ± 1.1
[2]; rat, p.o.
  dose showing the activity of improving space recognition disorders induced by scopolamine: 0.01 mg/kg
mouse
  safety: highly safe
[3]; 0.032 mg/kg i.p.
  number of incorrect responses, Session 1: 5.50
  number of incorrect responses, Session 2: 2.00
  number of incorrect responses, Session 3: 2.00
  number of incorrect responses, Session 4: 1.33
  number of incorrect responses, Session 5: 1.00
  number of incorrect responses, Session 6: 0.83
[3]; rat
  minimal effective dose: 0.032 mg/kg
[4]
  activity of improving memory and learning deficits: showed the activity of improving memory and learning deficits
  potency order in improving memory and learning deficits: more potent order of (-) rolipram, (±) rolipram and (+) rolipram
[5]; [8]
  number of incorrect responses, Session 1: 4.50
  number of incorrect responses, Session 2: 2.67
  number of incorrect responses, Session 3: 1.50
  number of incorrect responses, Session 4: 1.50
  number of incorrect responses, Session 5: 1.17
  number of incorrect responses, Session 6: 0.50
[5]; rat, i.p.
  dose inhibiting the increase in the number of incorrect responses induced by scopolamine: 0.032 mg/kg

## COc1ccc(C2CNC(=O)C2)cc1OC1CCCC1 (single isomer, unassigned; (+)) [(+) Rolipram]
[1]; 3.0 mg/kg i.p.
  Survival Time: 217.2 ± 5.3 s
[1]; mouse, i.p.
  dose showing the action of prolonging the survival time: 3.0 mg/kg
[2]; [9]
  Number of Correct Choice: 7.2 ± 0.3
  Number of Incorrect Choice: 2.3 ± 1.6
[2]; rat, p.o.
  dose showing the activity of improving space recognition disorders induced by scopolamine: 10 mg/kg
[6]; ip
  LD50: > 2300 mg/kg
[6]; po
  LD50: > 4000 mg/kg
mouse
  safety: highly safe
[3]; 1 mg/kg i.p.
  number of incorrect responses, Session 1: 5.33
  number of incorrect responses, Session 2: 3.67
  number of incorrect responses, Session 3: 2.00
  number of incorrect responses, Session 4: 2.83
  number of incorrect responses, Session 5: 1.67
  number of incorrect responses, Session 6: 1.50
[3]; rat, 1 mg/kg i.p.
  improvement of the disorders induced by cerebral ischemia: no improvement
[4]
  activity of improving memory and learning deficits: showed the activity of improving memory and learning deficits
  potency order in improving memory and learning deficits: more potent order of (-) rolipram, (±) rolipram and (+) rolipram
[5]; [10]
  number of incorrect responses, Session 1: 4.00
  number of incorrect responses, Session 2: 4.17
  number of incorrect responses, Session 3: 3.00
  number of incorrect responses, Session 4: 2.00
  number of incorrect responses, Session 5: 1.83
  number of incorrect responses, Session 6: 1.67
[5]; rat, i.p.
  dose inhibiting the increase in the number of incorrect responses induced by scopolamine: 1 mg/kg

## CN1[C@@H]2C[C@@H](OC(=O)[C@H](CO)c3ccccc3)C[C@H]1[C@@H]1O[C@@H]12 [Scopolamine, scopolamine]
[2]; scopolamine alone 0.5 mg/kg i.p., Control 0.3 ± 0.1
  Number of Incorrect Choice: 7.1 ± 0.9
[2]; scopolamine alone 0.5 mg/kg i.p., Control 7.9 ± 0.2
  Number of Correct Choice: 5.9 ± 0.2
[5]; [11]
  number of incorrect responses, Session 1: 6.21
  number of incorrect responses, Session 2: 4.74
  number of incorrect responses, Session 3: 3.24
  number of incorrect responses, Session 4: 3.11
  number of incorrect responses, Session 5: 2.68
  number of incorrect responses, Session 6: 2.32

## COc1ccc(C2CNC(=O)C2)cc1OC1CCCC1 (racemic) [(±) Rolipram]
[1]; 1.0 mg/kg i.p.
  Survival Time: 220.3 ± 6.9 s
[1]; Mus musculus, ip, mouse, i.p., read-out: dose showing the action of prolonging the survival time
  minimal effective dose: 1 mg/kg
[2]; [12]
  Number of Correct Choice: 6.9 ± 0.2
  Number of Incorrect Choice: 2.3 ± 1.1
[2]; Rattus norvegicus, po, rat, p.o., read-out: dose showing the activity of improving space recognition disorders induced by scopolamine
  minimal effective dose: 0.02 mg/kg
[6]; ip
  LD50: 1500 mg/kg
[6]; po
  LD50: 4000 mg/kg
mouse
  safety: highly safe
[3]; 0.1 mg/kg i.p.
  number of incorrect responses, Session 1: 4.25
  number of incorrect responses, Session 2: 3.00
  number of incorrect responses, Session 3: 2.88
  number of incorrect responses, Session 4: 1.88
  number of incorrect responses, Session 5: 1.38
  number of incorrect responses, Session 6: 1.13
[3]; rat
  minimal effective dose: 0.1 mg/kg
[4]
  activity of improving memory and learning deficits: showed the activity of improving memory and learning deficits
  potency order in improving memory and learning deficits: more potent order of (-) rolipram, (±) rolipram and (+) rolipram
[5]; [13]
  number of incorrect responses, Session 1: 5.67
  number of incorrect responses, Session 2: 3.00
  number of incorrect responses, Session 3: 1.67
  number of incorrect responses, Session 4: 1.00
  number of incorrect responses, Session 5: 1.00
  number of incorrect responses, Session 6: 1.17
[5]; Rattus norvegicus, ip, rat, i.p., read-out: dose inhibiting the increase in the number of incorrect responses induced by scopolamine
  minimal effective dose: 0.1 mg/kg
